{
  "source": "paper PMC9403976",
  "about": "“Elucidating the path to Plasmodium prolyl-tRNA synthetase inhibitors that overcome halofuginone resistance” (Nature Communications, 2022)",
  "key": {"HsProRS": {"biological_target": "HsProRS (Homo sapiens, UniProt P07814)", "sequence (P07814 996-1512)": "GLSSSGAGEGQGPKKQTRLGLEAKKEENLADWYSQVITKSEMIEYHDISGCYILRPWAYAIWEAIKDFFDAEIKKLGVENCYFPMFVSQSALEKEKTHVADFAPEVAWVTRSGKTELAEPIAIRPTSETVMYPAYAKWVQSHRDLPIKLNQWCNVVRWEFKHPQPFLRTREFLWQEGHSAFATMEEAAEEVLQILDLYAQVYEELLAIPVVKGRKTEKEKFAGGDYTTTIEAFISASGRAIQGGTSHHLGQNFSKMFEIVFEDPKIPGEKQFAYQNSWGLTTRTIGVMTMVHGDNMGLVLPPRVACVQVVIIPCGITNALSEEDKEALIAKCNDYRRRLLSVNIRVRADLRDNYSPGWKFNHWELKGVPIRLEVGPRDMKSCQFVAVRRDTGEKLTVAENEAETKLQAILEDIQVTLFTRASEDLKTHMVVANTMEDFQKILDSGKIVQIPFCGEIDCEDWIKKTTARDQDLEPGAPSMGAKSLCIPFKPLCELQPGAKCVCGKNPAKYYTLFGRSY", "test": "TR-FRET ligand displacement assay with tracer MAT379 (CoraFluor-1-Halo and anti-His6 antibody formats)", "type": "binding", "set-up": "made in house; host or cells: E. coli SoluBL-21", "conditions": "for TR-FRET dose-response, normalized signal (SI Fig 11): individual replicates"}, "PfcProRS": {"biological_target": "T1, PfcProRS (Plasmodium falciparum, UniProt Q8I5R7)", "T1 construct": "made in house; host or cells: E. coli SoluBL-21", "T1 sequence (Q8I5R7 249-746)": "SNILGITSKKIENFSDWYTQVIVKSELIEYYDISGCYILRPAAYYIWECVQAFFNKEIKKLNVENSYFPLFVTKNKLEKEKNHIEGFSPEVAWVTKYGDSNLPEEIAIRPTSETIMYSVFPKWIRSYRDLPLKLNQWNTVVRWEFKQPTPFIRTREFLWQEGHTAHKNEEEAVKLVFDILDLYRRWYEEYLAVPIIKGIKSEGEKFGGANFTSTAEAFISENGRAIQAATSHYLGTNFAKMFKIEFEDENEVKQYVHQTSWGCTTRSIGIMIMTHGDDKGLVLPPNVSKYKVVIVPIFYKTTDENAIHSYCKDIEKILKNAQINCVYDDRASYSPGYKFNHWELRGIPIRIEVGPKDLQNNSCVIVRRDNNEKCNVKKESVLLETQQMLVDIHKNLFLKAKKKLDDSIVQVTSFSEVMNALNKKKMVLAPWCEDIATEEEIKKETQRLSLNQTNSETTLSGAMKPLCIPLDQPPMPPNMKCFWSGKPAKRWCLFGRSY", "type": "binding", "conditions": "single replicates"}},
  "note": "Where “and” joins values, the source holds several entries; their conditions need not be identical. Identical values can stand only once. Like-named read-outs stand apart in the source and are kept apart here.",
  "data": [
    {"compound": "CC(C)(C)OC(=O)N1CCN(C(=O)Nc2nccnc2C(=O)NC2Cc3ccccc3C2)CC1", "note": "[compound 13]", "values": [
      {"measurement": "IC50", "setting": "HsProRS", "value": "> 10", "unit": "µM"},
      {"measurement": "HsProRS % signal at 10 μM, + 100 μM proline", "setting": "HsProRS; + 100 μM proline, 10 μM", "value": 52.2, "unit": "%"},
      {"measurement": "normalized TR-FRET ligand displacement signal, dose-response replicates (SI Fig 6)", "setting": "HsProRS; Log[inhibitor] (M) -5.000", "value": "5.04E-01 and 5.72E-01 and 5.31E-01"},
      {"measurement": "TR-FRET dose-response, normalized signal (SI Fig 11)", "setting": "HsProRS; Log[inhibitor] (M) -5.000", "value": "5.54E-01 and 6.12E-01 and 6.15E-01"},
      {"measurement": "normalized TR-FRET ligand displacement signal, dose-response replicates (SI Fig 6)", "setting": "HsProRS; Log[inhibitor] (M) -5.301", "value": "6.63E-01 and 7.73E-01 and 7.12E-01"},
      {"measurement": "TR-FRET dose-response, normalized signal (SI Fig 11)", "setting": "HsProRS; Log[inhibitor] (M) -5.301", "value": "7.87E-01 and 7.25E-01 and 6.74E-01"},
      {"measurement": "normalized TR-FRET ligand displacement signal, dose-response replicates (SI Fig 6)", "setting": "HsProRS; Log[inhibitor] (M) -5.601", "value": "9.43E-01 and 7.95E-01 and 9.57E-01"},
      {"measurement": "TR-FRET dose-response, normalized signal (SI Fig 11)", "setting": "HsProRS; Log[inhibitor] (M) -5.601", "value": "8.12E-01 and 8.26E-01 and 8.38E-01"},
      {"measurement": "normalized TR-FRET ligand displacement signal, dose-response replicates (SI Fig 6)", "setting": "HsProRS; Log[inhibitor] (M) -5.904", "value": "9.95E-01 and 9.88E-01 and 9.03E-01"},
      {"measurement": "TR-FRET dose-response, normalized signal (SI Fig 11)", "setting": "HsProRS; Log[inhibitor] (M) -5.904", "value": "8.50E-01 and 8.61E-01 and 8.43E-01"},
      {"measurement": "normalized TR-FRET ligand displacement signal, dose-response replicates (SI Fig 6)", "setting": "HsProRS; Log[inhibitor] (M) -6.208", "value": "1.02E+00 and 9.02E-01 and 9.17E-01"},
      {"measurement": "TR-FRET dose-response, normalized signal (SI Fig 11)", "setting": "HsProRS; Log[inhibitor] (M) -6.208", "value": "9.15E-01 and 9.28E-01 and 8.71E-01"},
      {"measurement": "normalized TR-FRET ligand displacement signal, dose-response replicates (SI Fig 6)", "setting": "HsProRS; Log[inhibitor] (M) -6.509", "value": "9.58E-01 and 9.37E-01 and 9.28E-01"},
      {"measurement": "TR-FRET dose-response, normalized signal (SI Fig 11)", "setting": "HsProRS; Log[inhibitor] (M) -6.509", "value": "9.05E-01 and 9.50E-01 and 9.14E-01"},
      {"measurement": "normalized TR-FRET ligand displacement signal, dose-response replicates (SI Fig 6)", "setting": "HsProRS; Log[inhibitor] (M) -6.796", "value": "1.05E+00 (2×) and 9.53E-01"},
      {"measurement": "TR-FRET dose-response, normalized signal (SI Fig 11)", "setting": "HsProRS; Log[inhibitor] (M) -6.796", "value": "9.07E-01 and 9.30E-01 and 8.71E-01"},
      {"measurement": "normalized TR-FRET ligand displacement signal, dose-response replicates (SI Fig 6)", "setting": "HsProRS; Log[inhibitor] (M) -7.108", "value": "1.05E+00 and 1.10E+00 and 9.73E-01"},
      {"measurement": "TR-FRET dose-response, normalized signal (SI Fig 11)", "setting": "HsProRS; Log[inhibitor] (M) -7.108", "value": "9.13E-01 and 9.30E-01 and 9.12E-01"},
      {"measurement": "normalized TR-FRET ligand displacement signal, dose-response replicates (SI Fig 6)", "setting": "HsProRS; Log[inhibitor] (M) -7.409", "value": "1.03E+00 and 1.01E+00 (2×)"},
      {"measurement": "TR-FRET dose-response, normalized signal (SI Fig 11)", "setting": "HsProRS; Log[inhibitor] (M) -7.409", "value": "9.32E-01 and 9.37E-01 and 8.25E-01"},
      {"measurement": "normalized TR-FRET ligand displacement signal, dose-response replicates (SI Fig 6)", "setting": "HsProRS; Log[inhibitor] (M) -7.710", "value": "9.23E-01 (2×) and 9.87E-01"},
      {"measurement": "TR-FRET dose-response, normalized signal (SI Fig 11)", "setting": "HsProRS; Log[inhibitor] (M) -7.710", "value": "9.18E-01 and 8.75E-01 and 8.91E-01"},
      {"measurement": "normalized TR-FRET ligand displacement signal, dose-response replicates (SI Fig 6)", "setting": "HsProRS; Log[inhibitor] (M) -8.000", "value": "9.04E-01 and 9.35E-01 and 9.98E-01"},
      {"measurement": "TR-FRET dose-response, normalized signal (SI Fig 11)", "setting": "HsProRS; Log[inhibitor] (M) -8.000", "value": "9.32E-01 and 9.16E-01 and 8.80E-01"},
      {"measurement": "normalized TR-FRET ligand displacement signal, dose-response replicates (SI Fig 6)", "setting": "HsProRS; Log[inhibitor] (M) -8.301", "value": "9.80E-01 and 9.08E-01 and 1.02E+00"},
      {"measurement": "TR-FRET dose-response, normalized signal (SI Fig 11)", "setting": "HsProRS; Log[inhibitor] (M) -8.301", "value": "8.80E-01 and 9.57E-01 and 9.53E-01"},
      {"measurement": "normalized TR-FRET ligand displacement signal, dose-response replicates (SI Fig 6)", "setting": "HsProRS; Log[inhibitor] (M) -8.602", "value": "9.80E-01 and 9.47E-01 and 9.05E-01"},
      {"measurement": "TR-FRET dose-response, normalized signal (SI Fig 11)", "setting": "HsProRS; Log[inhibitor] (M) -8.602", "value": "9.10E-01 and 9.58E-01 and 9.24E-01"},
      {"measurement": "normalized TR-FRET ligand displacement signal, dose-response replicates (SI Fig 6)", "setting": "HsProRS; Log[inhibitor] (M) -9.000", "value": "9.78E-01 and 9.57E-01 and 9.87E-01"},
      {"measurement": "TR-FRET dose-response, normalized signal (SI Fig 11)", "setting": "HsProRS; Log[inhibitor] (M) -9.000", "value": "9.07E-01 and 8.93E-01 and 8.97E-01"},
      {"measurement": "normalized TR-FRET ligand displacement signal, dose-response replicates (SI Fig 6)", "setting": "HsProRS; Log[inhibitor] (M) -9.301", "value": "9.45E-01 and 8.63E-01 and 9.67E-01"},
      {"measurement": "TR-FRET dose-response, normalized signal (SI Fig 11)", "setting": "HsProRS; Log[inhibitor] (M) -9.301", "value": "9.11E-01 and 8.69E-01 and 9.61E-01"},
      {"measurement": "HsProRS % signal at 10 μM", "setting": "HsProRS; no added proline/ATP (-), 10 μM", "value": 59.4, "unit": "%"},
      {"measurement": "IC50", "setting": "HsProRS; read-out: HsProRS IC50 + 100 μM proline, + 100 μM proline", "value": "> 10", "unit": "µM"},
      {"measurement": "dose-response signal (normalized), SI Fig 8", "setting": "PfcProRS; Log[inhibitor] (M) -5.000", "value": "6.57E-01 and 6.36E-01 and 6.64E-01"},
      {"measurement": "dose-response signal (normalized), SI Fig 8", "setting": "PfcProRS; Log[inhibitor] (M) -5.301", "value": "8.73E-01 and 7.48E-01 and 7.96E-01"},
      {"measurement": "dose-response signal (normalized), SI Fig 8", "setting": "PfcProRS; Log[inhibitor] (M) -5.601", "value": "9.97E-01 and 9.02E-01 and 8.50E-01"},
      {"measurement": "dose-response signal (normalized), SI Fig 8", "setting": "PfcProRS; Log[inhibitor] (M) -5.904", "value": "9.78E-01 and 1.07E+00 and 1.00E+00"},
      {"measurement": "dose-response signal (normalized), SI Fig 8", "setting": "PfcProRS; Log[inhibitor] (M) -6.208", "value": "1.06E+00 (2×) and 9.45E-01"},
      {"measurement": "dose-response signal (normalized), SI Fig 8", "setting": "PfcProRS; Log[inhibitor] (M) -6.509", "value": "1.17E+00 and 1.01E+00 and 1.09E+00"},
      {"measurement": "dose-response signal (normalized), SI Fig 8", "setting": "PfcProRS; Log[inhibitor] (M) -6.796", "value": "1.13E+00 and 1.01E+00 and 1.17E+00"},
      {"measurement": "dose-response signal (normalized), SI Fig 8", "setting": "PfcProRS; Log[inhibitor] (M) -7.108", "value": "1.04E+00 and 9.91E-01 and 1.15E+00"},
      {"measurement": "dose-response signal (normalized), SI Fig 8", "setting": "PfcProRS; Log[inhibitor] (M) -7.409", "value": "1.05E+00 and 1.06E+00 and 1.03E+00"},
      {"measurement": "dose-response signal (normalized), SI Fig 8", "setting": "PfcProRS; Log[inhibitor] (M) -7.710", "value": "1.04E+00 and 9.80E-01 and 9.98E-01"},
      {"measurement": "dose-response signal (normalized), SI Fig 8", "setting": "PfcProRS; Log[inhibitor] (M) -8.000", "value": "1.08E+00 and 9.50E-01 and 1.05E+00"},
      {"measurement": "dose-response signal (normalized), SI Fig 8", "setting": "PfcProRS; Log[inhibitor] (M) -8.301", "value": "1.02E+00 and 1.08E+00 and 1.09E+00"},
      {"measurement": "dose-response signal (normalized), SI Fig 8", "setting": "PfcProRS; Log[inhibitor] (M) -8.602", "value": "9.84E-01 and 9.74E-01 and 9.67E-01"},
      {"measurement": "dose-response signal (normalized), SI Fig 8", "setting": "PfcProRS; Log[inhibitor] (M) -9.000", "value": "1.06E+00 and 9.60E-01 and 9.76E-01"},
      {"measurement": "dose-response signal (normalized), SI Fig 8", "setting": "PfcProRS; Log[inhibitor] (M) -9.301", "value": "1.07E+00 and 9.33E-01 and 9.62E-01"}
    ]}
  ]
}
